Assay results published in publication PMC9321718 (Pharmaceuticals, 2022).
Entries after “also recorded” stand apart in the source; their conditions may differ. Like-named read-outs stand apart in the source and are kept apart here.

Assays:
B. subtilis = assay: Synergy of adjuvant-MCD with Lev-MCD, growth inhibition zones in agar; format: cell-based, Bacillus subtilis; details: for FICadjuvant / Type of Interaction between Lev and X / D, diameter of bacterial inhibition zone surrounding Lev–MCD with APAB-MCD / ϕLev = (D/DLev)^2 / FICI: B. subtilis; for D, diameter of bacterial inhibition zone surrounding Lev–MCD with APAB-MCD: Lev-MCD + X-MCD (1:2), ±0.5; for ϕLev = (D/DLev)^2: ±0.1
Procedure: (§1) We obtained complex formulations containing adjuvants-MCD and Lev-MCD. These complexes were referred to as enhanced Lev. The synergy effect was studied at a constant concentration of Lev and a variable concentration of an enhancer. […] Based on the D/DLev ratio, the effectiveness of cooperative antibacterial action (ϕ) of the adjuvant and Lev was calculated. The fractional inhibitory concentration (FIC) parameter was introduced: at a fixed Lev concentration, the FIC of adjuvant corresponds to the minimum fractional adjuvant concentration at which the antibacterial effect was still manifest (MICadjuvant in the presence of Lev). The fractional inhibitory concentration index (FICI) characterizes the ratio of the active Lev and adjuvant concentrations to the MIC values of these substances individually: FICI=[Lev]/MIC(Lev)[…][adjuvant]/MIC(adjuvant) (see Section 3).
(§2) The FICI was interpreted as: synergism (<0.35), additivity (0.35–0.75), indifference (0.75–1.4), or antagonism (>1.4). FICI is designed to determine the type of Lev interaction with adjuvants.
(§3) The study of the antibacterial effect of Lev and adjuvants was carried out by (a) agar diffusion test and (b) broth micro-dilution method. (a) A measured 500 µL of 100-fold culture dilution was evenly distributed over a solid nutrient medium (LB, pH 7.2) on a Petri dish. After 20 min, agar disks with a diameter of 9 mm were removed from the cups and 50 µL of the test samples were placed in the formed wells at the required concentration in a sterile PBS buffer (see Section 3.3 (2)). After 30 min, Petri dishes were placed in a 37 °C thermostat. […] Minimum inhibitory concentrations (MICs) are determined as the infimum of multiple concentrations of an antimicrobial that inhibits the visible growth of a microorganism after overnight incubation. (b) According to the standard broth micro-dilution method, 200 µL of the overnight culture (5 × 10^6 CFU) was placed into a 96 micro-titer plate wells. Then 50 µL of tested samples was added. The range of tested Lev concentration was 4–200 ng/mL, adjuvants concentration was in the range of 0.008–2 mg/mL. […] The dependence of CFU (determined by A600) on the concentration of Lev, APAB or terpenoid (briefly X) was approximated according to the Boltzmann equation (Origin software): CFU = (control CFU)/(1 + exp(([X] − MIC50)/constant value)). […] In other words, the concentration at which the ordinate value (CFU) is equal to 50 or 10% of the control sample minus the background.
(§4) The FICI was interpreted as: synergism (<0.35), additivity (0.35–0.75), indifference (0.76–1.4), or antagonism (>1.4). The essence of this expression is to calculate the average change in the effective concentration compared to MIC. Note that the most important parameter corresponds to a decrease in MIC of Lev. However, FICI is designed to determine the type of interaction Lev with adjuvants.

[1] = pH 6.2
Procedure: (§5) (3) Solubility of X in water C0 = [Xaq] = A/(ε · l) was determined by UV absorbance after centrifugation of samples (10 min, 10,000× g). l = 1 cm. ε—molar absorbance coefficient (Figure 1C).

[2] = Dissociation constant of complexes with HPCD by FTIR spectroscopy; format: physicochemical; details: complex with HPCD, aqueous solutions, 22 °C
Source text: Changes in the microenvironment of chemical bonds, functional groups, protonation/deprotonation, or the formation of non-valent interactions between the receptor and the ligand (in this case, the formation of guest–host inclusion complexes of CD with EG and apiol molecules) leads to a change in the intensity or position of characteristic peaks in the IR spectra. […] The above-indicated peaks in the IR spectra are composite which was visually confirmed by the changes in the shape of peaks and even the appearance of shoulders when the APAB was turned on in the CD cavity. To separate the complex peaks into components, increase sensitivity and obtain more detailed information, the differentiation method was used. The shifts of minima/maxima of the second derivative of spectra (Figure 2B) in allyl ν(C=C) and aromatic ν(C–C) regions were the most prominent. […]
ATR-FTIR spectra of samples’ solutions (point 3.3.1) were recorded using a Bruker Tensor 27 spectrometer equipped with a liquid nitrogen cooled MCT (mercury cadmium telluride) detector. […] ATR-FTIR spectra of solid samples placed on KBr glass were recorded using a Bruker Lumos II IR microscope in the region from 700 to 4000 cm^−1 with 1 cm^−1 spectral resolution with scanning in the area on average 1 × 1 microns. […]

E. coli = assay: Synergy of adjuvant-MCD with Lev-MCD, growth inhibition zones in agar; format: cell-based, Escherichia coli; details: for D, diameter of bacterial inhibition zone surrounding Lev–MCD with APAB-MCD: Lev-MCD + X-MCD (1:2), ±0.5; for ϕLev = (D/DLev)^2: ±0.1; for FICI: ±15%
Procedure: as §1, §2, §3, §4

[3] = Dissolution of APAB on inclusion into CD, observed in a light microscope; format: physicochemical; details: MCD and HPCD
Procedure: The dependence of the dissolution degree on the content of CD in the system was determined. […] Since soluble complex forms of EG, apiol and other individual components of essential oils have been obtained, a quantitative study of the adjuvant and synergistic activities of APAB is relevant but previously impossible because of the stratification of substances and the formation of oil fractions. The following are the results of experiments to determine the antibacterial and synergistic effects of adjuvant–CD complexes.

[4] = Solubility of X in water and in the presence of MCD/HPCD (UV absorbance); details: APAB–MCD molar ratio 1:5 vs water without MCD; UV
Procedure: as §5

C=CCc1ccc(O)c(OC)c1 [Eugenol, 4-allyl-2-methoxyphenol]
FICadjuvant (B. subtilis; CLev 0.4 μg/mL): 0.10 ± 0.01 mg/mL
Type of Interaction between Lev and X (B. subtilis; CLev 0.4 μg/mL): Synergism (synergism (<0.35))
D, diameter of bacterial inhibition zone surrounding Lev–MCD with APAB-MCD (B. subtilis; CLev 0.4 μg/mL): 14.5 mm
ϕLev = (D/DLev)^2 (B. subtilis; CLev 0.4 μg/mL): 1.5
FICI (B. subtilis; CLev 0.4 μg/mL, ±15%): 0.16
FICadjuvant (B. subtilis; CLev 0.7 μg/mL): 0.2 ± 0.02 mg/mL
Type of Interaction between Lev and X (B. subtilis; CLev 0.7 μg/mL): Additivity (additivity (0.35–0.75))
D, diameter of bacterial inhibition zone surrounding Lev–MCD with APAB-MCD (B. subtilis; CLev 0.7 μg/mL): 16 mm
ϕLev = (D/DLev)^2 (B. subtilis; CLev 0.7 μg/mL): 1.2
FICI (B. subtilis; CLev 0.7 μg/mL, ±15%): 0.56
FICadjuvant (B. subtilis; CLev 1.5 μg/mL): 0.10 ± 0.01 mg/mL
Type of Interaction between Lev and X (B. subtilis; CLev 1.5 μg/mL): Additivity (additivity (0.35–0.75))
D, diameter of bacterial inhibition zone surrounding Lev–MCD with APAB-MCD (B. subtilis; CLev 1.5 μg/mL): 19 mm
ϕLev = (D/DLev)^2 (B. subtilis; CLev 1.5 μg/mL): 1.2
FICI (B. subtilis; CLev 1.5 μg/mL, ±15%): 0.60
type of interaction with Lev (B. subtilis; Gram-positive cells (B. subtilis)): additivity
Cmax in the Presence of 2 mM HPCD [1]: 8.3 ± 0.2 (MCD), 8.5 ± 0.1 (HPCD) mM
Cmax in the Presence of 2 mM MCD [1]: 8.3 ± 0.2 (MCD), 8.5 ± 0.1 (HPCD) mM
Cmax in the Presence of 10 mM HPCD [1]: 11 ± 1 (MCD), 13 ± 1 (HPCD) mM
Cmax in the Presence of 10 mM MCD [1]: 11 ± 1 (MCD), 13 ± 1 (HPCD) mM
Kd [2]: 4.1 ± 0.3 mM
D, diameter of bacterial inhibition zone surrounding Lev–MCD with APAB-MCD (E. coli; E. coli, CLev 0.03 μg/mL): 14 mm
ϕLev = (D/DLev)^2 (E. coli; E. coli, CLev 0.03 μg/mL): 2.0
FICI (E. coli; E. coli, CLev 0.03 μg/mL): 0.30
D, diameter of bacterial inhibition zone surrounding Lev–MCD with APAB-MCD (E. coli; E. coli, CLev 0.05 μg/mL): 17 mm
ϕLev = (D/DLev)^2 (E. coli; E. coli, CLev 0.05 μg/mL): 2.9
FICI (E. coli; E. coli, CLev 0.05 μg/mL): 0.08
D, diameter of bacterial inhibition zone surrounding Lev–MCD with APAB-MCD (E. coli; E. coli, CLev 0.1 μg/mL): 20 mm
ϕLev = (D/DLev)^2 (E. coli; E. coli, CLev 0.1 μg/mL): 3.3
FICI (E. coli; E. coli, CLev 0.1 μg/mL): 0.10
D, diameter of bacterial inhibition zone surrounding Lev–MCD with APAB-MCD (E. coli; E. coli, CLev 0.15 μg/mL): 15 mm
ϕLev = (D/DLev)^2 (E. coli; E. coli, CLev 0.15 μg/mL): 2.3
FICI (E. coli; E. coli, CLev 0.15 μg/mL): 0.05
D, diameter of bacterial inhibition zone surrounding Lev–MCD with APAB-MCD (E. coli; E. coli, CLev 0.5 μg/mL): 26 mm
ϕLev = (D/DLev)^2 (E. coli; E. coli, CLev 0.5 μg/mL): 1.3
FICI (E. coli; E. coli, CLev 0.5 μg/mL): 1.3
amplification effect of adjuvant (E. coli; E. coli, at minimal Lev concentrations): 3 fold
MICLev in the presence of adjuvant (E. coli; E. coli, reduced from 0.10 μg/mL): 0.015 to 0.02 µg/mL
decrease of Lev MIC (E. coli; conclusions, bacterium not stated): 3–4 times
increase in Lev antibacterial activity / efficacy (E. coli; growth inhibition diameter measurement in agar, inclusion complexes with MCD, listed as EG): over three-fold; also recorded: two–three-fold
amount of CD required for a noticeable conversion to the complex/soluble form [3]: equimolar
molar excess of CD for almost complete dissolution [3]: 5 fold molar excess

C=CCc1ccc2c(c1)OCO2 [Safrole]
FICadjuvant (B. subtilis; CLev 0.4 μg/mL): 0.17 ± 0.02 mg/mL
Type of Interaction between Lev and X (B. subtilis; CLev 0.4 μg/mL): Synergism (synergism (<0.35))
D, diameter of bacterial inhibition zone surrounding Lev–MCD with APAB-MCD (B. subtilis; CLev 0.4 μg/mL): 14 mm
ϕLev = (D/DLev)^2 (B. subtilis; CLev 0.4 μg/mL): 1.4
FICI (B. subtilis; CLev 0.4 μg/mL, ±15%): 0.08
FICadjuvant (B. subtilis; CLev 0.7 μg/mL): 0.33 ± 0.03 mg/mL
Type of Interaction between Lev and X (B. subtilis; CLev 0.7 μg/mL): Synergism (synergism (<0.35))
D, diameter of bacterial inhibition zone surrounding Lev–MCD with APAB-MCD (B. subtilis; CLev 0.7 μg/mL): 16 mm
ϕLev = (D/DLev)^2 (B. subtilis; CLev 0.7 μg/mL): 1.1
FICI (B. subtilis; CLev 0.7 μg/mL, ±15%): 0.28
FICadjuvant (B. subtilis; CLev 1.5 μg/mL): 0.15 ± 0.02 mg/mL
Type of Interaction between Lev and X (B. subtilis; CLev 1.5 μg/mL): Synergism (synergism (<0.35))
D, diameter of bacterial inhibition zone surrounding Lev–MCD with APAB-MCD (B. subtilis; CLev 1.5 μg/mL): 20 mm
ϕLev = (D/DLev)^2 (B. subtilis; CLev 1.5 μg/mL): 1.4
FICI (B. subtilis; CLev 1.5 μg/mL, ±15%): 0.27
FICI (B. subtilis; with Lev): 0.08–0.11
increased solubility of APAB, times [4]: 25 times
MICLev in the presence of adjuvant (E. coli): 0.015 to 0.02 µg/mL
D, diameter of bacterial inhibition zone surrounding Lev–MCD with APAB-MCD (E. coli; E. coli, CLev 0.15 μg/mL): 14.5 mm
ϕLev = (D/DLev)^2 (E. coli; E. coli, CLev 0.15 μg/mL): 2.1
FICI (E. coli; E. coli, CLev 0.15 μg/mL): 0.09
